Earlier results as cited in patent US20120238596A1, “FORMULATIONS COMPRISING PALONOSETRON” (DR. REDDY'S LABORATORIES, INC., priority 2008, published 2012).

Biological target: T1, serotonin subtype 3 (5-HT3) receptor (Homo sapiens, UniProt P46098)
T1 sequence (P46098 24-478): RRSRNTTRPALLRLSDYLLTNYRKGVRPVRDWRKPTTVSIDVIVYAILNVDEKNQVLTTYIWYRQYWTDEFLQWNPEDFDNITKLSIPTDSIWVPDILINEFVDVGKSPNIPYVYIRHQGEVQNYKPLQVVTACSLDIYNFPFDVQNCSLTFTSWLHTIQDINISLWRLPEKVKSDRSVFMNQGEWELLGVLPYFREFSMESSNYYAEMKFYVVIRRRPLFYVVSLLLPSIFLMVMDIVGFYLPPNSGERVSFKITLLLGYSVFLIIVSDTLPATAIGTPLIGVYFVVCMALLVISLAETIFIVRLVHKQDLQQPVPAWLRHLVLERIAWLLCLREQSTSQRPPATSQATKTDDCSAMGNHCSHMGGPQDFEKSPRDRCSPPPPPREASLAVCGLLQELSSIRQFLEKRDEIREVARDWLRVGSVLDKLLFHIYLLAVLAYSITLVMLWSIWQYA

SMILES: Cl.O=C1c2cccc3c2[C@H](CCC3)CN1[C@@H]1CN2CCC1CC2 [Palonosetron hydrochloride, (3a5)-2-[(S)-1-Azabicyclo [2.2.2]oct-3-yl]-2,3,3a,4,5,6-hexahydro-1-oxo-1H-benz [de]isoquinoline hydrochloride]
- binding affinity for 5-HT3 receptor: strong binding affinity
